Laboratory results as given in article PMC5219024, “New acetylenic derivatives of betulin and betulone, synthesis and cytotoxic activity” (Medicinal Chemistry Research, 2016).
Values after ≈ are worked out from the molar mass of the structure shown.

Key:
[1] = test system: HL-60 (human promyelocytic leukemia); experiment: Antiproliferative assay in vitro (MTT), HL-60; format: cell-based; conditions: for IC50: Homo sapiens, HL-60 cancer cell line, 96 h exposure, read-out: Cytotoxic activity IC50, HL-60
Method: (§1) The tested cell lines were obtained from the American Type Culture Collection (Rockville, Maryland, USA) and maintained at the Cell Culture Collection of the Institute of Immunology and Experimental Therapy (Wrocław, Poland). The cells were seeded in 96-well plates (Sarstedt, USA) at a density of 10^4 cells per well in 100 µL of culture medium overnight. […] The normal mouse fibroblasts BALB3T3 was cultured in Dulbecco’s modified Eagle’s medium (Sigma-Aldrich, Chemie GmbH, Steinheim, Germany) supplemented with 2 mM glutamine (Sigma-Aldrich, Chemie GmbH, Steinheim, Germany) and 10 % fetal calf serum FBS (Sigma-Aldrich, Chemie GmbH, Steinheim, Germany). The all culture media were supplemented with streptomycin (100 µg/mL) and penicillin (100 U/mL) (both antibiotics from Polfa, Tarchomin, Poland). The cell cultures were maintained at 37 °C in humid atmosphere saturated with 5 % CO2. The MTT assay was used for the cytotoxicity screening against leukemia cells growing in suspension culture. This assay was performed after 96 h of the leukemia cells to varying concentrations (ranging from 1 to 100 µg/mL) of the tested substances. The derivatives of betulin were dissolved in 10 % DMSO to concentration of 1 mg/mL, and next diluted in culture medium to reach the required concentrations. […] During the last 3–4 h of incubation 20 µl of MTT solution were added to each well (MTT: 3-(4,5-dimethylthiazol-2-yl)-2,5-diphenyl tetrazolium bromide; stock solution: 5 mg/mL). The pale yellow MTT is reduced to a navy blue formazan in the mitochondria of living cells. At the end of incubation time, 80 µL of the lysing mixture was added to each well (lysing mixture: 225 mL dimethylformamide, 67.5 g sodium dodecyl sulfate and 275 mL of distilled water). After 24 h are formed the crystals of formazan, which are insoluble in aqueous solutions. The formazan crystals had been dissolved. The optical densities were read on a Multiskan RC photometer at 570 nm wavelength. The compounds in given concentration were examined in triplicates in each experiment which was repeated 3–5 times. The results of cytotoxic activity in vitro were expressed as an IC50 in µg/mL.

[2] = test system: T47D (human breast cancer); experiment: Antiproliferative assay in vitro (SRB), T47D; format: cell-based; conditions: human T47D, 96 h exposure, 1 to 100 µg/mL, Neg = negative in the concentration used; for IC50: read-out: Cytotoxic activity IC50, T47D
Method: (§2) The tested cell lines were obtained from the American Type Culture Collection (Rockville, Maryland, USA) and maintained at the Cell Culture Collection of the Institute of Immunology and Experimental Therapy (Wrocław, Poland). The cells were seeded in 96-well plates (Sarstedt, USA) at a density of 10^4 cells per well in 100 µL of culture medium overnight. […] The normal mouse fibroblasts BALB3T3 was cultured in Dulbecco’s modified Eagle’s medium (Sigma-Aldrich, Chemie GmbH, Steinheim, Germany) supplemented with 2 mM glutamine (Sigma-Aldrich, Chemie GmbH, Steinheim, Germany) and 10 % fetal calf serum FBS (Sigma-Aldrich, Chemie GmbH, Steinheim, Germany). The all culture media were supplemented with streptomycin (100 µg/mL) and penicillin (100 U/mL) (both antibiotics from Polfa, Tarchomin, Poland). The cell cultures were maintained at 37 °C in humid atmosphere saturated with 5 % CO2. This technique as first was described by Skehan et al. in [1990]. The SRB assay was performed after 96 h exposure of the cultured cells to varying concentrations (ranging from 1 to 100 µg/mL) of the tested substances. The reported derivatives as well as betulin 1 were dissolved in 10 % dimethyl sulfoxide (DMSO) to concentration of 1 mg/mL, and next diluted in culture medium to reach the required concentrations. […] The cells fastened to the plastic were fixed mildly layering cold 50 % TCA (trichloroacetic acid, Aldrich-Chemie, Germany) on the top of the culture medium in each well. The plates were incubated at 4 °C for 1 h and then washed five times with tap water. The cells fixed with TCA were stained with 0.4 % sulforhodamine B (SRB, Sigma, Germany) dissolved in 1 % acetic acid (POCH, Gliwice, Poland) for 30 min. The unbound dye was removed by rinsing four times with 1 % acetic acid. The protein-bound dye was extracted with 10 mM unbuffered tris base (POCH, Gliwice, Poland) and then determined the optical density at 540 nm in a computer-interfaced, 96-well microtiter plate reader Multiscan RC photometer (Labsystems, Helsinki, Finland). The compounds in given concentration were examined in triplicates in each experiment which was repeated 3–5 times. The results of cytotoxic activity in vitro were expressed as an IC50 in µg/mL.

[3] = test system: CCRF/CEM (human leukemia); experiment: Antiproliferative assay in vitro (MTT), CCRF/CEM; format: cell-based; conditions: human CCRF/CEM, 96 h exposure, 1 to 100 µg/mL, Neg = negative in the concentration used; for IC50: read-out: Cytotoxic activity IC50, CCRF/CEM
Method: as §1

SW707 (human colorectal) = experiment: Antiproliferative assay in vitro (SRB), SW707; format: cell-based; conditions: human SW707; 96 h exposure; 1 to 100 µg/mL; Neg = negative in the concentration used
Method: as §2

P388 (mouse leukemia) = experiment: Antiproliferative assay in vitro (MTT), P388; format: cell-based; conditions: murine P388, 96 h exposure, 1 to 100 µg/mL, Neg = negative in the concentration used; for IC50: Mus musculus, read-out: Cytotoxic activity IC50, P388
Method: as §1

[4] = test system: BALB3T3 normal mouse fibroblasts; experiment: Antiproliferative assay in vitro (SRB), BALB3T3; format: cell-based; conditions: murine BALB3T3 normal fibroblasts; 96 h exposure; 1 to 100 µg/mL; Neg = negative in the concentration used
Method: as §2

| Structure (SMILES) | IC50 [1] [mg/L] | Cytotoxic activity IC50, SW707 (SW707 (human colorectal)) | Cytotoxic activity IC50, BALB3T3 [4] | melting point [°C] | further results |
| --- | --- | --- | --- | --- | --- |
| C=CCOC(=O)OC[C@]12CC[C@@H](C(=C)C)C1C1CCC3[C@@]4(C)CC[C@H](O)C(C)(C)C4CC[C@@]3(C)[C@]1(C)CC2 (stereo partly shown) [Compound 11, 28-O-Allyloxycarbonylbetulin] | 14.9 ± 3.9 (≈ 28.3 µM) |  |  |  |  |
| C=C(C)[C@@H]1CC[C@]2(COC(=O)C#Cc3ccccc3)CC[C@]3(C)C(CCC4[C@@]5(C)CCC(=O)C(C)(C)C5CC[C@]43C)C12 (stereo partly shown) [Compound 19, 28-O-Phenylpropynoylbetulone] |  | Neg | Neg | 82 to 85 | Cytotoxic activity IC50, T47D [2]: Neg; Cytotoxic activity IC50, CCRF/CEM [3]: Neg; Cytotoxic activity IC50, P388 (P388 (mouse leukemia)): Neg |
| C=CC(=O)OC[C@]12CC[C@@H](C(=C)C)C1C1CCC3[C@@]4(C)CCC(=O)C(C)(C)C4CC[C@@]3(C)[C@]1(C)CC2 (stereo partly shown) [Compound 16, 28-O-(2-Propenoyl)betulone] | 5 ± 1.3 (≈ 10.1 µM) |  |  |  |  |
| C=C(C)[C@@H]1CC[C@]2(COC(=O)C#CC3CC3)CC[C@]3(C)C(CCC4[C@@]5(C)CC[C@H](O)C(C)(C)C5CC[C@]43C)C12 (stereo partly shown) [Compound 6, 28-O-(3-Cyclopropyl-2-propynoyl)betulin] | 44.8 ± 10.9 (≈ 83.8 µM) | Neg | Neg | 108 to 113 | IC50 [2]: 33.6 ± 6.3 mg/L (≈ 62.8 µM); IC50 [3]: 16.5 ± 8.5 mg/L (≈ 30.9 µM); IC50 (P388 (mouse leukemia)): 8.4 ± 9.2 mg/L (≈ 15.7 µM) |
| C=CCOC(=O)OC[C@]12CC[C@@H](C(=C)C)C1C1CCC3[C@@]4(C)CCC(=O)C(C)(C)C4CC[C@@]3(C)[C@]1(C)CC2 (stereo partly shown) [Compound 23, 28-O-Allyloxycarbonylbetulone] | 28.4 ± 1.6 (≈ 54.1 µM) |  |  | 123 to 125 |  |
| C#CCCOC(=O)OC[C@]12CC[C@@H](C(=C)C)C1C1CCC3[C@@]4(C)CCC(=O)C(C)(C)C4CC[C@@]3(C)[C@]1(C)CC2 (stereo partly shown) [Compound 25, 28-O-(3-Butynyloxycarbonyl)betulone] |  | Neg | Neg | 81 to 84 | IC50 [2]: 29.8 ± 10.7 mg/L (≈ 55.5 µM); IC50 [3]: 25.2 ± 4.6 mg/L (≈ 46.9 µM); IC50 (P388 (mouse leukemia)): 3.8 ± 1.9 mg/L (≈ 7.08 µM) |
| C=C(C)[C@@H]1CC[C@]2(COC(=O)OCCC)CC[C@]3(C)C(CCC4[C@@]5(C)CC[C@H](O)C(C)(C)C5CC[C@]43C)C12 (stereo partly shown) [Compound 10, 28-O-Propoxycarbonylbetulin] | 26.8 ± 2.5 (≈ 50.7 µM) |  |  |  |  |
| C#CC(=O)OC[C@]12CC[C@@H](C(=C)C)C1C1CCC3[C@@]4(C)CCC(=O)C(C)(C)C4CC[C@@]3(C)[C@]1(C)CC2 (stereo partly shown) [Compound 17, 28-O-Propynoylbetulone] | 0.3 ± 0.06 (≈ 0.609 µM) |  |  | 93 to 96 | fold potent than betulin 1 against HL-60 ([1]; relative to betulin 1, HL-60): 24 fold |
| C=C(C)[C@@H]1CC[C@]2(COC(=O)CC)CC[C@]3(C)C(CCC4[C@@]5(C)CCC(=O)C(C)(C)C5CC[C@]43C)C12 (stereo partly shown) [Compound 15, 28-O-Propanoylbetulone] | 33.7 ± 5.5 (≈ 67.8 µM) |  |  |  |  |
